This is an account of results in paper PMC12147714 (FEMS Microbiology Letters, 2025).

Read-outs that look alike come from different tables or passages of the source.

One test deals with IMP-producers. Also noted: method as in Hamrick et al. 2020, Le Terrier et al. 2024. Particulars: ref Hamrick et al. 2020, Le Terrier et al. 2024; cited from earlier work.
For another test, the target named is IMP-1 (Serratia marcescens, UniProt P52699). Kind of test: IC50, inhibition of cephalothin hydrolysis by crude extract.
IMP-1, sequence (P52699 19-246 limits assumed): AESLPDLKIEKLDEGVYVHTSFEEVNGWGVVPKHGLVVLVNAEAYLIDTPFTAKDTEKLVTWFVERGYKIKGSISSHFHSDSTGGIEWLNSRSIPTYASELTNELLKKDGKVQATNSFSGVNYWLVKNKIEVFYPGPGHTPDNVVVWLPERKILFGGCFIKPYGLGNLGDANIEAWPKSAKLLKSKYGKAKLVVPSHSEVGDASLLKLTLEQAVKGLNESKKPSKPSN
The target in test [1] is T1, IMP-10 (Serratia marcescens, UniProt P52699, V49F). The test is described as above.
T1 sequence (P52699 19-246 V49F): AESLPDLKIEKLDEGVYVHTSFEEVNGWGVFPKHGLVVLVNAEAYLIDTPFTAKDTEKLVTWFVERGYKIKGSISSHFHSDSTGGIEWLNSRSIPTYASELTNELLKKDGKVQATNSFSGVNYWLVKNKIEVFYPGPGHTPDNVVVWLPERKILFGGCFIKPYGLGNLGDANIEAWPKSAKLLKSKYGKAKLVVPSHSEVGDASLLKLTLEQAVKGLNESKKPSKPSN
The target in the next test is IMP-13 (Pseudomonas aeruginosa, UniProt Q7WYA8). Described as above.
IMP-13, sequence (Q7WYA8 21-246): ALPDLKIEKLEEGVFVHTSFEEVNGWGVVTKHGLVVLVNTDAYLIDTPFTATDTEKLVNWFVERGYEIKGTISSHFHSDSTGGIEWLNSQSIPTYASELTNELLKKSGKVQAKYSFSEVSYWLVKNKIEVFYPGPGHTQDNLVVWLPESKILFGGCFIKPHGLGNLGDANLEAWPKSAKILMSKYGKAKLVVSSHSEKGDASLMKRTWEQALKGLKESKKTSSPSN
The target in the next test is SPM-1 (Pseudomonas aeruginosa, UniProt Q8G9Q0). The test is described as above.
SPM-1, sequence (Q8G9Q0 entry or part of it): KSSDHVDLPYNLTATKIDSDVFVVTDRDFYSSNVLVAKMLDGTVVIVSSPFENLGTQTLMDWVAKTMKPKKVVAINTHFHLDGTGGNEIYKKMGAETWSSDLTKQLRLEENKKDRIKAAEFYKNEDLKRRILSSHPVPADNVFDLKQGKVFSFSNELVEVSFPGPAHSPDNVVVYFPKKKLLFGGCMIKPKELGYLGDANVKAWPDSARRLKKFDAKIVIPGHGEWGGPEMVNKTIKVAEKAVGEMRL
The target in another test is VIM-1 (Pseudomonas aeruginosa, UniProt A0A0F7KYQ8). Described as above.
For another test, the target named is VIM-2 (Escherichia coli, UniProt Q5U7L7). The test is described as above.
Test [2] has as its target T1, IMP-10. Particulars: ref Le Terrier et al. 2024; cited from earlier work.
Test [3] has as its system PAO1 TnoprD producing IMP-1. The test can be described thus: MIC and checkerboard by broth microdilution, recombinant strain. Format: cell-based, Pseudomonas aeruginosa. Particulars: IMP-1 TnoprD; antibiotic alone. The protocol: (§1) The fractional inhibitory concentration index (FICI) was calculated and interpreted as follows: the MIC of drug A in combination/the MIC of drug A alone + the MIC of drug B in combination/the MIC drug B alone. FICI ≤ 0.5 = synergy; 0.5 < FICI ≤ 1 = additive; FICI 1 < FICI < 2 = indifference, and FICI ≥ 2 = antagonism. All susceptibility testing/checkerboard assays were performed in triplicate.
Background: Dilution methods test growth across graded concentrations, often in twofold steps.

The subject of another test is PAO1 producing IMP-10. The test is described as above. Particulars: antibiotic alone. Type of test: cell-based, Pseudomonas aeruginosa. Here is the method:
as §1

The subject of another test is PAO1 producing NDM-1. The test is described as above. Type of test: cell-based, Pseudomonas aeruginosa. To be noted: antibiotic alone. Here is the method:
as §1

Test [4] relates to PAO1 TnoprD producing IMP-10. Described as above. Type of test: cell-based, Pseudomonas aeruginosa. To be noted: IMP-10 TnoprD; antibiotic alone.
Description: (§2) Pseudomonas aeruginosa isolate, PAO1, was used alongside its isogenic counterpart, PAO1 TnoprD, which lacks a functional OprD porin (Held et al. [2012]). β-lactamases, blaIMP-1, blaIMP-10, blaIMP-13, blaNDM-1, blaSPM-1, blaVIM-1, blaVIM-2, and blaKPC-2, had previously been cloned into the pUCP24 shuttle vector (Bouvier et al. [2025]), and were transformed by electroporation into both PAO1 and PAO1 TnoprD.
as §1, with “. MICs of DMSA, CAZ, FEP and checkerboards for the combinations, CAZ/DMSA and FEP/DMSA, were performed for all clinical isolates. All susceptibility testing results were interpreted according to CLSI guidelines (CLSI [2023]). The” for “The”

The subject of test [5] is PAO1 TnoprD producing IMP-13. The description is as above. Type of test: cell-based, Pseudomonas aeruginosa. To be noted: IMP-13 TnoprD; antibiotic alone.
Description: as §2
as §1, with “. MICs of DMSA, CAZ, FEP and checkerboards for the combinations, CAZ/DMSA and FEP/DMSA, were performed for all clinical isolates. All susceptibility testing results were interpreted according to CLSI guidelines (CLSI [2023]). The” for “The”

The subject of test [6] is PAO1 TnoprD producing SPM-1. Described as above. Particulars: SPM-1 TnoprD; antibiotic alone. Format: cell-based, Pseudomonas aeruginosa.
Description: as §2
as §1, with “. MICs of DMSA, CAZ, FEP and checkerboards for the combinations, CAZ/DMSA and FEP/DMSA, were performed for all clinical isolates. All susceptibility testing results were interpreted according to CLSI guidelines (CLSI [2023]). The” for “The”

Test [7] relates to PAO1 TnoprD producing VIM-2. The test is described as above. To be noted: VIM-2 TnoprD; antibiotic alone. Format: cell-based, Pseudomonas aeruginosa.
Description: as §2
as §1, with “. MICs of DMSA, CAZ, FEP and checkerboards for the combinations, CAZ/DMSA and FEP/DMSA, were performed for all clinical isolates. All susceptibility testing results were interpreted according to CLSI guidelines (CLSI [2023]). The” for “The”

Another test relates to PAO1 producing IMP-13. Described as above. Format: cell-based, Pseudomonas aeruginosa. To be noted: antibiotic alone.
Description: as §2
as §1, with “. MICs of DMSA, CAZ, FEP and checkerboards for the combinations, CAZ/DMSA and FEP/DMSA, were performed for all clinical isolates. All susceptibility testing results were interpreted according to CLSI guidelines (CLSI [2023]). The” for “The”

A further test deals with PAO1 producing IMP-1. Described as above. Type of test: cell-based, Pseudomonas aeruginosa. To be noted: antibiotic alone.
Description: as §2
as §1, with “. MICs of DMSA, CAZ, FEP and checkerboards for the combinations, CAZ/DMSA and FEP/DMSA, were performed for all clinical isolates. All susceptibility testing results were interpreted according to CLSI guidelines (CLSI [2023]). The” for “The”

The next test deals with PAO1 producing SPM-1. Described as above. Format: cell-based, Pseudomonas aeruginosa. Particulars: antibiotic alone.
Description: as §2
as §1, with “. MICs of DMSA, CAZ, FEP and checkerboards for the combinations, CAZ/DMSA and FEP/DMSA, were performed for all clinical isolates. All susceptibility testing results were interpreted according to CLSI guidelines (CLSI [2023]). The” for “The”

The next test deals with PAO1 producing VIM-1. The description is as above. Format: cell-based, Pseudomonas aeruginosa. To be noted: antibiotic alone.
Description: as §2
as §1, with “. MICs of DMSA, CAZ, FEP and checkerboards for the combinations, CAZ/DMSA and FEP/DMSA, were performed for all clinical isolates. All susceptibility testing results were interpreted according to CLSI guidelines (CLSI [2023]). The” for “The”

A further test concerns PAO1 producing VIM-2. The test is described as above. Type of test: cell-based, Pseudomonas aeruginosa. To be noted: antibiotic alone.
Description: as §2
as §1, with “. MICs of DMSA, CAZ, FEP and checkerboards for the combinations, CAZ/DMSA and FEP/DMSA, were performed for all clinical isolates. All susceptibility testing results were interpreted according to CLSI guidelines (CLSI [2023]). The” for “The”

Test [8] relates to PAO1 TnoprD producing KPC-2. Type of test: cell-based, Pseudomonas aeruginosa. To be noted: KPC-2 TnoprD; antibiotic alone. The protocol: as §1
The test system of test [9] is PAO1 TnoprD producing NDM-1. Kind of test: MIC and checkerboard by broth microdilution, recombinant strain. Format: cell-based, Pseudomonas aeruginosa. Particulars: NDM-1 TnoprD; antibiotic alone. The protocol: as §1
The subject of another test is PAO1 producing KPC-2. Type of test: cell-based, Pseudomonas aeruginosa. To be noted: antibiotic alone. The protocol:
as §1

In test [10] the test system is PAO1 and PAO1 TnoprD producing one of eight different carbapenemases. The test can be described thus: MIC and checkerboard, isogenic strains as a group. Format: cell-based, Pseudomonas aeruginosa.
Description: as §2
as §1, with “. MICs of DMSA, CAZ, FEP and checkerboards for the combinations, CAZ/DMSA and FEP/DMSA, were performed for all clinical isolates. All susceptibility testing results were interpreted according to CLSI guidelines (CLSI [2023]). The” for “The”

For test [11], the system named is PAO1 TnoprD producing VIM-1. The test can be described thus: MIC and checkerboard by broth microdilution, recombinant strain. Type of test: cell-based, Pseudomonas aeruginosa. Particulars: VIM-1 TnoprD; antibiotic alone. Here is the method:
as §1

As to `NCCN[C@H]1CC[C@H](CC(=O)N[C@H]2Cc3cccc(C(=O)O)c3OB2O)CC1` [TAN, taniborbactam], in the test on IMP-producers, the “activity against IMP-producers” value is recorded as “poor activity”. The IC50 at IMP-1 (IMP-1, 100 μM cephalothin, pH 7.0) was above 1000 µM; on IMP-10 [1] (IMP-10, 100 μM cephalothin, pH 7.0), above 1000 µM; on IMP-13 (IMP-13, 100 μM cephalothin, pH 7.0), above 1000 µM; against SPM-1 (SPM-1, 100 μM cephalothin, pH 7.0) it was 2.7 µM; against VIM-1 (VIM-1, 100 μM cephalothin, pH 7.0), 800 nM; at VIM-2 (VIM-2, 100 μM cephalothin, pH 7.0), 500 nM.
On to `O=C(O)c1c(F)ccc2c1OB(O)[C@@H]1C[C@H]21` [XER, xeruborbactam], for which the “activity against IMP-10” value on IMP-10 [2] is recorded as “limited activity”. Moreover, the IC50 on IMP-1 was 2.7 µM; against IMP-10 [1], 73 µM; against IMP-13, 3.6 µM; at SPM-1, above 1000 µM; at VIM-1, 500 nM; against VIM-2, 100 nM.
In the case of `C[C@@H](O)[C@H]1C(=O)N2C(C(=O)O)=C(SCCN=CN)C[C@H]12` [IPM, imipenem], the MIC was 64 µg/mL in test [3]; 8 µg/mL in the test with PAO1 producing IMP-10; 32 µg/mL in the test on PAO1 producing NDM-1; 64 µg/mL in test [4]; 8 µg/mL in [5]; 16 µg/mL in test [6]. Moreover, the MIC in test [7] came out at 32 µg/mL; with PAO1 producing IMP-13, 1 µg/mL; in the test on PAO1 producing IMP-1, 16 µg/mL; in the test with PAO1 producing SPM-1 it was 2 µg/mL; with PAO1 producing VIM-1 it was 64 µg/mL; in the test on PAO1 producing VIM-2, 4 µg/mL. For the same compound, in test [8], the MIC turned out to be 512 µg/mL.
Turning to `C[C@@H](O)[C@H]1C(=O)N2C(C(=O)O)=C(S[C@@H]3CN[C@H](C(=O)N(C)C)C3)[C@H](C)[C@H]12` [MEM, meropenem], the MIC in [9] turned out to be 256 µg/mL; in test [4], 256 µg/mL; in test [5] it was 8 µg/mL; in [6], 64 µg/mL; in test [7], 8 µg/mL; in the test on PAO1 producing IMP-13, 4 µg/mL. Moreover, the MIC was 64 µg/mL in the test with PAO1 producing IMP-1; 32 µg/mL in the test with PAO1 producing SPM-1; 64 µg/mL with PAO1 producing VIM-1; 4 µg/mL in the test with PAO1 producing VIM-2; 512 µg/mL in test [8]; 256 µg/mL in the test on PAO1 producing KPC-2. Besides, the “interaction with DMSA as indicated by the FICIs” value in test [10] (SPM-1 strains, DMSA 200 and 300 mg/l) is reported as “synergy (FICI ≤ 0.5 = synergy)”; in test [10] (strains producing IMP-1, IMP-10 or IMP-13, with and without functional OprD, DMSA 200 and 300 mg/l) it was “synergy (FICI ≤ 0.5 = synergy)”.
Turning to `CO/N=C(\C(=O)N[C@@H]1C(=O)N2C(C(=O)[O-])=C(C[N+]3(C)CCCC3)CS[C@H]12)c1csc(N)n1` [FEP, cefepime], the MIC was found to be 512 µg/mL in test [3]; 256 µg/mL in test [9]; 512 µg/mL in [11]; 256 µg/mL with PAO1 producing IMP-10; 256 µg/mL with PAO1 producing NDM-1; 256 µg/mL in [4]. In addition, the MIC in test [5] turned out to be 16 µg/mL; in [6], 64 µg/mL; in test [7], 2 µg/mL; with PAO1 producing IMP-13, 16 µg/mL; in the test with PAO1 producing IMP-1, 512 µg/mL; in the test on PAO1 producing SPM-1 it was 64 µg/mL. Besides, the MIC turned out to be 512 µg/mL in the test on PAO1 producing VIM-1, 2 µg/mL in the test on PAO1 producing VIM-2, 512 µg/mL in [8] and 512 µg/mL with PAO1 producing KPC-2. In test [10] (strains producing IMP-1, IMP-10 or IMP-13, with and without functional OprD, all three DMSA concentrations (100, 200, 300 mg/l)), the “interaction with DMSA as indicated by the FICIs” value is “synergy (FICI ≤ 0.5 = synergy)”.

As a reminder, the IC50 is the concentration that inhibits the measured activity by half. As usually defined, the MIC is the lowest concentration found to suppress growth.
